Source: patent publication US20220401440A1, “DOSING REGIMENS FOR A PROTEIN KINASE C INHIBITOR” (IDEAYA BIOSCIENCES, INC., priority 2019, published 2022)
Like-named read-outs stand apart in the source and are kept apart here.

What was measured:
[1] = test system: metastatic uveal melanoma (MUM); details: cited from earlier work
[2] = Hypotension studies: adverse events, single-agent Compound (I), 300 mg BID vs 400 mg BID with 7-day 200 mg run-in (Tables 6, 7); format: in vivo
Excerpt: Patients with MUM were sequentially enrolled into Cohort 1 or Cohort 2. Enrollment into Cohort 2 was not initiated until enrollment into Cohort 1 was completed and the dose considered safe. • a. Cohort 1. […] Cohort 2. […] All patients continue to receive treatment with Compound (I) unless the subject experiences one or more of the following: • Adverse event • Lost to follow-up • Physician decision • Progressive disease • Study termination by the Sponsor • Patient/guardian decision • Protocol […]

[3] = Hypotension studies: adverse events, single agent Compound (I) BID schedule (Table 5); format: in vivo, human
[4] = cited from earlier work; for Dose limiting toxicities (DLTs): evaluable patients
[5] = Phase 1/2 study: plasma pharmacokinetics of Compound (I) in patients (LC-MS/MS, non-compartmental analysis); format: in vivo, human; details: 300 mg BID
Protocol: The following example presents a phase 1/2 study of Compound (I) in patients with solid tumors harboring GNAQ/11 mutations or PRKC fusions.
Patients with MUM were sequentially enrolled into Cohort 1 or Cohort 2. Enrollment into Cohort 2 was not initiated until enrollment into Cohort 1 was completed and the dose considered safe. • a. Cohort 1. 6 patients were sequentially enrolled and received 300 mg twice a day (BID), daily, for 28-day treatment cycles. • b. Cohort 2. 6 patients were sequentially enrolled and received 400 mg BID, preceded by an initial 7-day 200 mg BID run-in period, for 28-day treatment cycles. All patients continue to receive treatment with Compound (I) unless the subject experiences one or more of the following: • Adverse event • Lost to follow-up • Physician decision • Progressive disease • Study termination by the Sponsor • Patient/guardian decision • Protocol deviation • Non-compliance with protocol • Death • Pregnancy NUMBER OF SUBJECTS: 12 patients
The following example presents pharmacokinetic results from the study as described in Example 1.
Blood samples were collected on Cycle 1 Day 1 and Day 15 from patients who were administered 300 mg BID of Compound (I), and on Cycle 1 Day 8 and Day 22 from patients who were administered 200 mg BID for 7 days followed by 400 mg BID of Compound (I) for the remainder of the treatment cycle. The plasma samples were processed by protein precipitation (see Ahuja S and Dong M. W, Handbook of Pharmaceutical Analysis by HPLC, Elsevier Inc., Chapter 17, page 433, 2005) and analyzed using an LC-MS/MS method; Quantification was achieved using Compound (I) peak area to internal standard (3-amino-N-(3-(4-amino-4-(methyl-d3)piperidin-1-yl)pyridin-2-yl)-6-(3-(trifluoromethyl)pyridin-2-yl)pyrazine-2-carboxamide) peak area ratios. Concentrations of the calibration curve standards, quality control samples, and patient samples were determined by the method of 1/x^2 weighted least squares linear regression.
The Pharmacokinetic parameters were calculated using Phoenix WinNonlin software (non-compartmental analysis).

[6] = cohort that received BID dosing of 200 to 400 mg
[7] = 300 mg BID, N = 26, regardless of study drug relationship
[8] = 400 mg BID with 7-day 200 mg run-in, N = 30
[9] = 400 mg BID with 7-day 200 mg run-in, N = 30, regardless of study drug relationship
[10] = All Patients, N = 56, regardless of study drug relationship
[11] = 300 mg BID, N = 18, regardless of study drug relationship
[12] = 400 mg, N = 6, regardless of study drug relationship
[13] = All BID Patients, N = 30, regardless of study drug relationship

CC1(N)CCN(c2cccnc2NC(=O)c2nc(-c3ncccc3C(F)(F)F)cnc2N)CC1 [Compound (I), 3-amino-N-(3-(4-amino-4-methylpiperidin-1-yl)pyridin-2-yl)-6-(3-(trifluoromethyl)pyridin-2-yl)pyrazine-2-carboxamide]
confirmed partial responses (PRs) ([1]; 68 patients, QD and BID, as of September 2018, preliminary): six | unconfirmed PRs ([1]; 68 patients, as of September 2018, preliminary): two | confirmed PRs [1, 6]: Four | patients with SD as best response (2 being unconfirmed PRs) [1, 6]: 18 | Hypotension, all grades, treatment-emergent, suspected to be study related ([2]; 300 mg BID, N = 26): 1 (3.8) n (%) | Hypotension, grade 3/4, treatment-emergent, suspected to be study related ([2]; 300 mg BID, N = 26): 0 n (%) | Hypotension, all grades [2, 7]: 1 (3.8) n (%) | Hypotension, grade 3/4 [2, 7]: 0 n (%) | Hypotension, all grades, treatment-emergent, suspected to be study related [2, 8]: 2 (6.7) n (%) | Hypotension, grade 3/4, treatment-emergent, suspected to be study related [2, 8]: 0 n (%) | Hypotension, all grades [2, 9]: 4 (13.3) n (%) | Hypotension, grade 3/4 [2, 9]: 0 n (%) | Hypotension, all grades, treatment-emergent, suspected to be study related ([2]; All Patients, N = 56): 3 (5.4) n (%) | Hypotension, grade 3/4, treatment-emergent, suspected to be study related ([2]; All Patients, N = 56): 0 n (%) | Hypotension, all grades [2, 10]: 5 (8.9) n (%) | Hypotension, grade 3/4 [2, 10]: 0 n (%) | frequency of hypotension at 400 mg BID with 200 mg run-in vs 400 mg BID alone ([2]; in vivo): less frequently | Hypotension, all grades [3, 11]: 3 (16.7) | Hypotension, grade >3 [3, 11]: 0 | Hypotension, all grades [3, 12]: 4 (66.7) | Hypotension, grade >3 [3, 12]: 1 (16.7) | Hypotension, all grades [3, 13]: 7 (23.3) | Hypotension, grade >3 [3, 13]: 1 (3.3) | Dose limiting toxicities (DLTs) ([4]; BID schedule): 2 of 17 | maximum tolerated dose ([4]; BID schedule): 400 mg BID | Dose limiting toxicities (DLTs) ([4]; QD schedule): 7 of 38 | maximum tolerated dose ([4]; QD schedule): 500 mg QD | most common DLT ([4]; human, in vivo): hypotension | recommended dose for expansion (RDE) ([4]; human, in vivo): 300 mg BID | Free AUC0-12 (mean free plasma) [5]: 260 ± 95 ng·h/mL | Cmin ([5]; Cycle 1 Day 15, mean ± SD, n = 12): 790 ± 345 ng/mL | Race ([5]; mean ± SD, n = 12): 0.74 ± 0.31
